This note sets out measurements from ChEMBL document CHEMBL4392859, “Xylo-C-nucleosides with a pyrrolo[2,1-f][1,2,4]triazin-4-amine heterocyclic base: Synthesis and antiproliferative properties” (Bioorg Med Chem Lett, 2019).

By pIC50 is commonly meant the negative decadic logarithm of the IC50, by convention in mol/L.

Common to all, as to assay type: functional, cell-based
One experiment concerns CAPAN-1. In words: Antiproliferative activity against human Capan1 cells. Conditions: for pIC50: Homo sapiens, CAPAN-1, read-out: IC50; call rule not given here.
A further experiment has as its system HL-60. In words: Antiproliferative activity against human HL60 cells. Conditions: for pIC50: Homo sapiens, HL-60, read-out: IC50.
The test system of another experiment is Z-138. In words: Antiproliferative activity against human Z138 cells. Conditions: for pIC50: Homo sapiens, Z-138, read-out: IC50.
The next experiment concerns K562. In words: Antiproliferative activity against human K562 cells. Conditions: for pIC50: Homo sapiens, K562, read-out: IC50.
The test system of another experiment is NCI-H460. In words: Antiproliferative activity against human NCI-H460 cells. Conditions: for pIC50: Homo sapiens, NCI-H460, read-out: IC50.
Experiment [1] in a line: Antiproliferative activity against human HAP1 cells. Conditions: for pIC50: Homo sapiens, HAP1, read-out: IC50.
In the next experiment the test system is HCT-116. Description: Antiproliferative activity against human HCT116 cells. Conditions: for pIC50: Homo sapiens, HCT-116, read-out: IC50.
Experiment [2] is described as follows: Antiproliferative activity against human DND41 cells. Conditions: for pIC50: Homo sapiens, DND41, read-out: IC50.

Structures are written as SMILES. pIC50: −log10 of the molar value.

`N#C[C@@]1(c2ccc3c(N)ncnn23)O[C@H](CO)[C@H](O)[C@H]1O`: the IC50 entry (in the experiment with CAPAN-1 (capan-1); in the experiment on HL-60 (hl-60); in the experiment on Z-138 (z-138); with K562 (k562); in the experiment with NCI-H460 (nci-h460); in experiment [1]) was “Not Active” each time. The IC50 result (in the experiment with HCT-116 (hct-116); in experiment [2]) was “Not Active” in each case.
Take `Nc1ncnn2c([C@@H]3O[C@H](CO)[C@H](O)[C@H]3O)ccc12`: the pIC50 in the experiment on CAPAN-1 was 5.57; in the experiment on HL-60 it was 5.72; with Z-138 it was 5.40; in the experiment with K562, 5.37; with NCI-H460, 5.70; in experiment [1], 5.03. Moreover, the pIC50 with HCT-116 was 5.08; in experiment [2], 5.55.
As for `CC(=O)O[C@@]12CO[C@@H]1C[C@H](O)[C@@]1(C)C(=O)[C@H](O)C3=C(C)[C@@H](OC(=O)[C@H](O)[C@@H](NC(=O)OC(C)(C)C)c4ccccc4)C[C@@](O)([C@@H](OC(=O)c4ccccc4)[C@H]21)C3(C)C` [DOCETAXEL ANHYDROUS], the pIC50 with CAPAN-1 is 7.72; in the experiment on HL-60, 7.33; in the experiment on Z-138, 8.05; with K562 it was 7.80; with NCI-H460, 8.15; in experiment [1], 7.74. In addition, the values for the pIC50 (in the experiment with HCT-116; in experiment [2]) were 8.40 and 7.85, respectively.
As for `CN[C@@H]1C[C@H]2O[C@@](C)([C@@H]1OC)n1c3ccccc3c3c4c(c5c6ccccc6n2c5c31)C(=O)NC4` [STAUROSPORINE], the pIC50 in the experiment with CAPAN-1 was 7.32; with HL-60 it was 7.72; in the experiment on Z-138 it was 7.74; in the experiment on K562, 7.08; with HCT-116, 7.43; in experiment [2], 7.64.
